These molecules were tested against T1, Cbl-b (truncated variant, UniProt number Q13191) (Homo sapiens, UniProt Q13191) (assay: Cbl-b activity assay (TR-FRET, interaction of Cbl-b with UbcH5B-Ub)). Conditions: Biological Example 1A; low or high conditions not stated; read-out: IC50 values in the Cbl-b inhibition assay of Biological Example 1A.
T1 construct: made in house
Format: biochemical

T1 sequence (Q13191 36-427): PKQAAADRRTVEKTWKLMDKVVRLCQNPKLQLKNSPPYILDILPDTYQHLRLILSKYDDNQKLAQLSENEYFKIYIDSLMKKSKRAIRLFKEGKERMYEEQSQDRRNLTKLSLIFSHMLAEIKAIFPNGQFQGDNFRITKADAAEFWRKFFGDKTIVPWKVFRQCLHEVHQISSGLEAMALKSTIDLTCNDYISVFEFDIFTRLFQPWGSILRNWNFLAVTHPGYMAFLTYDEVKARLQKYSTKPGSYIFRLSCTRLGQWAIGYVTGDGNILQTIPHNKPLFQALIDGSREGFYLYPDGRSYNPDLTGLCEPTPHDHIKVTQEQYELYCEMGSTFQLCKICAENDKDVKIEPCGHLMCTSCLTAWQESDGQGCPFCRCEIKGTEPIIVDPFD

Q: For `C[C@H](Cc1nncn1C)c1cccc(-c2n[nH]c3c(CN4CC[C@H](F)C4)cc(C(F)(F)F)nc23)c1` [Example 113, 3-[(2R)-2-[3-(7-[[(3S)-3-fluoropyrrolidin-1-yl]methyl]-5-(trifluoromethyl)-1H-pyrazolo[4,3-b]pyridin-3-yl)phenyl]propyl]-4-methyl-4H-1,2,4-triazole], which IC50 is on record?
A: < 0.1 µM

Q: With `C[C@H](Cc1nncn1C)c1cccc(-c2n[nH]c3ccc(C(F)(F)F)nc23)c1` [Example 116, (R)-3-(3-(1-(4-methyl-4H-1,2,4-triazol-3-yl)propan-2-yl)phenyl)-5-(trifluoromethyl)-1H-pyrazolo[4,3-b]pyridine] as the molecule, how does the IC50 read?
A: 0.1 to 1 µM

Q: Which IC50 does the source give for `CC(Sc1nncn1C)c1cccc(C(=O)Nc2cc3ccccc3cn2)c1` (stereo not shown) [Example 122, N-(isoquinolin-3-yl)-3-(1-((4-methyl-4H-1,2,4-triazol-3-yl)thio)ethyl)benzamide] here?
A: < 0.1 µM

Same assay, conditions: high conditions: 100 mM NaCl, 60 nM Src kinase; 12 nM Cbl-b; read-out: Cbl-b activity IC50

Q: Which IC50 does the source give for `C[C@H](Cc1nncn1C)c1cccc(-c2n[nH]c3c(N4CC(O)C4)cc(C(F)(F)F)nc23)c1` [Example 110, (R)-1-(3-(3-(1-(4-methyl-4H-1,2,4-triazol-3-yl)propan-2-yl)phenyl)-5-(trifluoromethyl)-1H-pyrazolo[4,3-b]pyridin-7-yl)azetidin-3-ol] here?
A: 0.1 to 1 µM

Q: Which IC50 does the source give for `C[C@H](Cc1nncn1C)c1cccc(-c2n[nH]c3c(N4CC[C@H](O)C4)cc(C(F)(F)F)nc23)c1` [Example 111, (S)-1-(3-(3-((R)-1-(4-methyl-4H-1,2,4-triazol-3-yl)propan-2-yl)phenyl)-5-(trifluoromethyl)-1H-pyrazolo[4,3-b]pyridin-7-yl)pyrrolidin-3-ol] here?
A: 0.1 to 1 µM

Q: For `C[C@H](Cc1nncn1C)c1cccc(-c2n[nH]c3c(N4CC[C@@H](O)C4)cc(C(F)(F)F)nc23)c1` [Example 112, (R)-1-(3-(3-((R)-1-(4-methyl-4H-1,2,4-triazol-3-yl)propan-2-yl)phenyl)-5-(trifluoromethyl)-1H-pyrazolo[4,3-b]pyridin-7-yl)pyrrolidin-3-ol], which IC50 is on record?
A: 0.1 to 1 µM

Q: For `C[C@H](Cc1nncn1C)c1cccc(-c2n[nH]c3c(CN4CC[C@H](F)C4)cc(C(F)(F)F)nc23)c1` [Example 113, 3-[(2R)-2-[3-(7-[[(3S)-3-fluoropyrrolidin-1-yl]methyl]-5-(trifluoromethyl)-1H-pyrazolo[4,3-b]pyridin-3-yl)phenyl]propyl]-4-methyl-4H-1,2,4-triazole], which IC50 is on record?
A: < 0.1 µM

Q: `C[C@H](Cc1nncn1C)c1cccc(-c2n[nH]c3ccc(C(F)(F)F)nc23)c1` [Example 116, (R)-3-(3-(1-(4-methyl-4H-1,2,4-triazol-3-yl)propan-2-yl)phenyl)-5-(trifluoromethyl)-1H-pyrazolo[4,3-b]pyridine] was tested. Which IC50 did it give?
A: 0.1 to 1 µM

Q: How did the IC50 turn out when `C[C@H](Cc1nncn1C)c1cccc(-c2n[nH]c3c(N4CCC(O)CC4)ccnc23)c1` [Example 117, (R)-1-(3-(3-(1-(4-methyl-4H-1,2,4-triazol-3-yl)propan-2-yl)phenyl)-1H-pyrazolo[4,3-b]pyridin-7-yl)piperidin-4-ol] was run?
A: 1 to 5 µM

Q: How did the IC50 turn out when `C[C@H](Cc1nncn1C)c1cccc(-c2n[nH]c3cccnc23)c1` [Example 118, (R)-3-(3-(1-(4-methyl-4H-1,2,4-triazol-3-yl)propan-2-yl)phenyl)-1H-pyrazolo[4,3-b]pyridine] was run?
A: 1 to 5 µM

Q: How did the IC50 turn out when `Cc1ccc2[nH]nc(-c3cccc([C@H](C)Cc4nncn4C)c3)c2n1` [Example 119, (R)-5-methyl-3-(3-(1-(4-methyl-4H-1,2,4-triazol-3-yl)propan-2-yl)phenyl)-1H-pyrazolo [4,3-b]pyridine] was run?
A: 1 to 5 µM

Q: Which IC50 does the source give for `C[C@H](Cc1nncn1C)c1cccc(-c2n[nH]c3cc(C4CCC4)cnc23)c1` [Example 120, (R)-6-cyclobutyl-3-(3-(1-(4-methyl-4H-1,2,4-triazol-3-yl)propan-2-yl)phenyl)-1H-pyrazolo[4,3-b]pyridine] here?
A: 1 to 5 µM

Q: Which IC50 does the source give for `C[C@H](Sc1nncn1C)c1ccnc(NC(=O)Nc2ccccn2)c1` [Example 121, (S)-1-(4-(1-((4-methyl-4H-1,2,4-triazol-3-yl)thio)ethyl)pyridin-2-yl)-3-(pyridin-2-yl)urea] here?
A: ≥ 5 µM

Q: `CC1CN(C(=O)Nc2cccc([C@H](C)Sc3nncn3C)c2)CC(=O)N1C` (stereo partly drawn) [Example 123, 3,4-dimethyl-N-(3-((S)-1-((4-methyl-4H-1,2,4-triazol-3-yl)thio)ethyl)phenyl)-5-oxopiperazine-1-carboxamide] was tested. Which IC50 did it give?
A: ≥ 5 µM

Q: Which IC50 does the source give for `C[C@H](Sc1nncn1C)c1cccc(NC(=O)N2CCCCC2)c1` [Example 124, (S)—N-(3-(1-((4-methyl-4H-1,2,4-triazol-3-yl)thio)ethyl)phenyl)piperidine-1-carboxamide] here?
A: ≥ 5 µM

Q: Which IC50 does the source give for `C[C@H](Sc1nncn1C)c1cccc(NC(=O)N2CCc3nocc3C2)c1` [Example 125, (S)—N-(3-(1-((4-methyl-4H-1,2,4-triazol-3-yl)thio)ethyl)phenyl)-6,7-dihydroisoxazolo[4,3-c]pyridine-5(4H)-carboxamide] here?
A: ≥ 5 µM

Q: Which IC50 does the source give for `C[C@H](Sc1nncn1C)c1cccc(NC(=O)N2CCC23CCN(C)CC3)c1` [Example 126, (S)-7-methyl-N-(3-(1-((4-methyl-4H-1,2,4-triazol-3-yl)thio)ethyl)phenyl)-1,7-diazaspiro[3.5]nonane-1-carboxamide] here?
A: ≥ 5 µM

Q: With `C[C@H](Sc1nncn1C)c1cccc(NC(=O)N2CCC(c3ccccc3)C2)c1` (stereo partly drawn) [Example 127, N-(3-((S)-1-((4-methyl-4H-1,2,4-triazol-3-yl)thio)ethyl)phenyl)-3-phenylpyrrolidine-1-carboxamide] as the molecule, how does the IC50 read?
A: ≥ 5 µM

Q: `C[C@H](Sc1nncn1C)c1cccc(NC(=O)N2CCOCC2)c1` [Example 128, N-[3-[(1S)-1-[(4-methyl-4H-1,2,4-triazol-3-yl)sulfanyl]ethyl]phenyl]morpholine-4-carboxamide] was tested. Which IC50 did it give?
A: ≥ 5 µM

Q: Which IC50 does the source give for `C[C@H](Sc1nncn1C)c1cccc(NC(=O)NC2CCCN(c3cccnn3)C2)c1` (stereo partly drawn) [Example 129, 1-(3-((S)-1-((4-methyl-4H-1,2,4-triazol-3-yl)thio)ethyl)phenyl)-3-(1-(pyridazin-3-yl)piperidin-3-yl)urea] here?
A: ≥ 5 µM

Q: Which IC50 does the source give for `C[C@H](Sc1nncn1C)c1cccc(NC(=O)N2CCC23CCOC3)c1` (stereo partly drawn) [Example 130, N-(3-((S)-1-((4-methyl-4H-1,2,4-triazol-3-yl)thio)ethyl)phenyl)-6-oxa-1-azaspiro[3.4]octane-1-carboxamide] here?
A: ≥ 5 µM

Q: For `C[C@H](Sc1nncn1C)c1cccc(NC(=O)N2CCOC(CC(F)(F)F)C2)c1` (stereo partly drawn) [Example 131, N-(3-((S)-1-((4-methyl-4H-1,2,4-triazol-3-yl)thio)ethyl)phenyl)-2-(2,2,2-trifluoroethyl)morpholine-4-carboxamide], which IC50 is on record?
A: ≥ 5 µM

Q: `C[C@H](Sc1nncn1C)c1cccc(NC(=O)N2CC(C)(F)C2)c1` [Example 132, 3-fluoro-3-methyl-N-[3-[(1S)-1-[(4-methyl-4H-1,2,4-triazol-3-yl)sulfanyl]ethyl]phenyl]azetidine-1-carboxamide] was tested. Which IC50 did it give?
A: ≥ 5 µM

Q: `C[C@H](Sc1nncn1C)c1cccc(NC(=O)N2CC3(CCC3O)C2)c1` (stereo partly drawn) [Example 133, 5-hydroxy-N-(3-((S)-1-((4-methyl-4H-1,2,4-triazol-3-yl)thio)ethyl)phenyl)-2-azaspiro[3.3]heptane-2-carboxamide] was tested. Which IC50 did it give?
A: ≥ 5 µM

Q: Which IC50 does the source give for `C[C@H](Sc1nncn1C)c1cccc(NC(=O)N2CC(S(C)(=O)=O)C2)c1` [Example 134, 3-methanesulfonyl-N-[3-[(1S)-1-[(4-methyl-4H-1,2,4-triazol-3-yl)sulfanyl]ethyl]phenyl]azetidine-1-carboxamide] here?
A: ≥ 5 µM

Q: With `C[C@H](Sc1nncn1C)c1cccc(NC(=O)N2CCO[C@H]([C@H]3CCCO3)C2)c1` [Example 135, (S)—N-(3-((S)-1-((4-methyl-4H-1,2,4-triazol-3-yl)thio)ethyl)phenyl)-2-((R)-tetrahydrofuran-2-yl)morpholine-4-carboxamide] as the molecule, how does the IC50 read?
A: ≥ 5 µM

Q: `C[C@H](Sc1nncn1C)c1cccc(NC(=O)N2CCO[C@@H]([C@H]3CCCO3)C2)c1` [Example 136, (R)—N-(3-((S)-1-((4-methyl-4H-1,2,4-triazol-3-yl)thio)ethyl)phenyl)-2-((R)-tetrahydrofuran-2-yl)morpholine-4-carboxamide] was tested. Which IC50 did it give?
A: ≥ 5 µM

Q: With `CCN1CCc2nc(NC(=O)Nc3cccc([C@H](C)Sc4nncn4C)c3)sc2C1` [Example 137, (S)-1-(5-ethyl-4,5,6,7-tetrahydrothiazolo[5,4-c]pyridin-2-yl)-3-(3-(1-((4-methyl-4H-1,2,4-triazol-3-yl)thio)ethyl)phenyl)urea] as the molecule, how does the IC50 read?
A: ≥ 5 µM

Q: `C[C@H](Sc1nncn1C)c1cccc(NC(=O)N2CC3(CCCO3)C2)c1` [Example 138, N-[3-[(1S)-1-[(4-methyl-4H-1,2,4-triazol-3-yl)sulfanyl]ethyl]phenyl]-5-oxa-2-azaspiro[3.4]octane-2-carboxamide] was tested. Which IC50 did it give?
A: ≥ 5 µM

Q: How did the IC50 turn out when `C[C@H](Sc1nncn1C)c1cccc(NC(=O)N2CCC3(CNC(=O)C3)C2)c1` (stereo partly drawn) [Example 139, N-(3-((S)-1-((4-methyl-4H-1,2,4-triazol-3-yl)thio)ethyl)phenyl)-8-oxo-2,7-diazaspiro[4.4]nonane-2-carboxamide] was run?
A: ≥ 5 µM

Q: With `C[C@H](Sc1nncn1C)c1cccc(NC(=O)N2CC(C(=O)N3CCC(O)CC3)C2)c1` [Example 140, (S)-3-(4-hydroxypiperidine-1-carbonyl)-N-(3-(1-((4-methyl-4H-1,2,4-triazol-3-yl)thio)ethyl)phenyl)azetidine-1-carboxamide] as the molecule, how does the IC50 read?
A: ≥ 5 µM

Q: Which IC50 does the source give for `C[C@H](Sc1nncn1C)c1cccc(NC(=O)N2CC3(CCOC(=O)N3)C2)c1` [Example 141, (S)—N-(3-(1-((4-methyl-4H-1,2,4-triazol-3-yl)thio)ethyl)phenyl)-6-oxo-7-oxa-2,5-diazaspiro[3.5]nonane-2-carboxamide] here?
A: ≥ 5 µM

Q: Which IC50 does the source give for `C[C@H](Sc1nncn1C)c1cccc(NC(=O)N2CCC2c2ccccc2)c1` (stereo partly drawn) [Example 142, N-(3-((S)-1-((4-methyl-4H-1,2,4-triazol-3-yl)thio)ethyl)phenyl)-2-phenylazetidine-1-carboxamide] here?
A: ≥ 5 µM

Q: `CC(CO)N(C)C(=O)Nc1cccc([C@H](C)Sc2nncn2C)c1` (stereo partly drawn) [Example 143, 1-(1-hydroxypropan-2-yl)-1-methyl-3-(3-((S)-1-((4-methyl-4H-1,2,4-triazol-3-yl)thio)ethyl)phenyl)urea] was tested. Which IC50 did it give?
A: ≥ 5 µM

Q: For `CNS(=O)(=O)c1cc(NC(=O)Nc2cccc([C@H](C)Sc3nncn3C)c2)ccc1C` [Example 144, (S)—N,2-dimethyl-5-(3-(3-(1-((4-methyl-4H-1,2,4-triazol-3-yl)thio)ethyl)phenyl)ureido)benzenesulfonamide], which IC50 is on record?
A: ≥ 5 µM

Q: How did the IC50 turn out when `C[C@H](Sc1nncn1C)c1cccc(NC(=O)N2Cc3nccnc3C2)c1` [Example 145, (S)—N-(3-(1-((4-methyl-4H-1,2,4-triazol-3-yl)thio)ethyl)phenyl)-5,7-dihydro-6H-pyrrolo[3,4-b]pyrazine-6-carboxamide] was run?
A: ≥ 5 µM

Same assay, conditions: low conditions: 50 mM NaCl, 30 nM Src kinase; 12 nM Cbl-b; read-out: Cbl-b activity IC50

Q: How did the IC50 turn out when `CC(Sc1nncn1C)c1cccc(C(=O)Nc2cc3ccccc3cn2)c1` (stereo not shown) [Example 122, N-(isoquinolin-3-yl)-3-(1-((4-methyl-4H-1,2,4-triazol-3-yl)thio)ethyl)benzamide] was run?
A: < 0.1 µM

Reference: US12653809B2, “Urea, amide, and substituted heteroaryl compounds for CBL-B inhibition” (Nurix Therapeutics, Inc., priority 2019, dated 2026)
